One test has as its system pkd1-null (WT9-12) cells. In words: centrosome clustering inhibitors on ADPKD cell line. Conditions: for mitotic progression / spindle assembly checkpoint (SAC) and cell death of cells with CA: cells with CA; for centrosome clustering in cells with CA: pkd1-null (WT9-12) cells. The test is classed as cell-based. From the text: (§1) Since this approach worked in ADPKD cells, mouse models were subsequently used to test the efficacy of the inhibitors in vivo.

The next test concerns wild-type (HK2) cells. In words: centrosome clustering inhibitors on wild-type cells. The class given is cell-based.
From the text: as §1

Test [1] has as its system PKD1^RC/RC mice. In words: slow-onset ADPKD mouse model, five-month treatment from six months of age. The class given is in vivo. The text has this:
To test the inhibitors, a slow-onset mouse model of ADPKD was needed that would allow for an extended period of time to treat these mice with the centrosome clustering inhibitors. The widely used slow-onset ADPKD model called the PKD1^RC/RC mouse (Hopp et al, JCI, 2012) was chosen for the small molecule inhibitor tests. These mice develop cysts slowly, such that kidney size increases around 6 months of age, and kidney function declines—as indicated by elevated blood-urea nitrogen (BUN) levels—around 9 months of age. The mice also show extensive cystogenesis as they age. […] Thus, this model was ideal for testing the centrosome clustering inhibitors. Using the slow-onset ADPKD model, the optimal effective time-course for inhibition of centrosome clustering using CCB02 and PJ-34 can be determined. Example 1 describes treatment at timepoints (e.g., beginning at six months of age, beginning at nine months, and up to eleven months of age) and for periods of time (e.g., every other day for sixty days or two months, every two days for five months). PKD1^RC/RC mice were treated with the inhibitors beginning at six months of age—at a stage when their kidneys have yet to dramatically increase in size and show functional decline (see e.g., FIG. 8). Centrosome clustering inhibitor CCB02 was administered by gavage every two days for a total of five months. Also included in the analysis was the only FDA-approved drug for ADPKD, tolvaptan. […] Blood and urine were collected at one-month intervals to monitor kidney function (see e.g., FIG. 8).

For test [2], the system named is PKD1^RC/RC mice. As to the kind of experiment: slow-onset ADPKD mouse model, sixty-day treatment followed by three-month washout. The class given is in vivo. From the text:
To test the inhibitors, a slow-onset mouse model of ADPKD was needed that would allow for an extended period of time to treat these mice with the centrosome clustering inhibitors. The widely used slow-onset ADPKD model called the PKD1^RC/RC mouse (Hopp et al, JCI, 2012) was chosen for the small molecule inhibitor tests. These mice develop cysts slowly, such that kidney size increases around 6 months of age, and kidney function declines—as indicated by elevated blood-urea nitrogen (BUN) levels—around 9 months of age. The mice also show extensive cystogenesis as they age. […] Thus, this model was ideal for testing the centrosome clustering inhibitors. Using the slow-onset ADPKD model, the optimal effective time-course for inhibition of centrosome clustering using CCB02 and PJ-34 can be determined. Example 1 describes treatment at timepoints (e.g., beginning at six months of age, beginning at nine months, and up to eleven months of age) and for periods of time (e.g., every other day for sixty days or two months, every two days for five months). […] PKD1^RC/RC mice were administered centrosome clustering inhibitor CCB02 beginning at nine months and up to eleven months of age (see e.g., FIG. 12A). CCB02 was administered by gavage every other day for sixty days (see e.g., FIG. 8). The treatment was arrested for three months, and animals were monitored for three additional months to determine if cysts returned once the compounds are no longer administered.

The test system of the next test is CPAP-tubulin interaction. Particulars: binding to tubulin, competing for the CPAP binding site of P-tubulin; cited from earlier work.
For test [3] the following is noted: annually; cited from earlier work.
Where [4] appears, read: five months treatment vs two-month scheme.

Here are results for 3 compounds from patent US20240041859A1, “METHODS OF TREATING AND PREVENTING KIDNEY DISEASE” (Washington University, priority 2020, published 2024).

Regarding `COc1ncc2cc3ccccc3nc2c1C#N` [CCB02], in the test on pkd1-null (WT9-12) cells, the mitotic progression result is reported as “delay in mitotic progression”; the “spindle assembly checkpoint (SAC) and cell death of cells with CA” value is given as “activation of the spindle assembly checkpoint (SAC), leading to cell death”; the “centrosome clustering in cells with CA” value is “inhibited centrosome clustering”. In addition, the “normal mitotic spindle formation in cells with normal centrosome number” value with wild-type (HK2) cells was “not impacting normal mitotic spindle formation”. Further, in the test with PKD1^RC/RC mice [1] (five months treatment), the cyst formation result is recorded as “better results in comparison to the FDA-approved drug tolvaptan” and the fibrosis markers result was “significant reduction in fibrosis markers”. In the test on PKD1^RC/RC mice [1] (setting [4]), the effect on cystogenesis entry is “even greater effect on cystogenesis” and the “effect on renal fibrosis” value is “even greater effect on renal fibrosis”. Also, the “cyst formation at eleven months” value in the test on PKD1^RC/RC mice [2] (gavage every other day for sixty days, compared to untreated mice) was “reduction in cyst formation”. In the test on PKD1^RC/RC mice [2] (three months post-washout), the BUN entry is “no increase”, the cyst re-formation entry is “cysts did not reform”, the fibrosis result is listed as “fibrosis was not evident” and the serum creatinine entry is “no increase”. Moreover, the IC50 in the test on CPAP-tubulin interaction is 0.689 µM.

Regarding `Cc1ccccc1C(=O)Nc1ccc(C(=O)N2CCCC(O)c3cc(Cl)ccc32)c(C)c1` (centres unmarked) [tolvaptan], the fibrosis markers entry with PKD1^RC/RC mice [1] (five months treatment) is reported as “significant reduction in fibrosis markers”. The “reduction of the rate of decline in renal function” value in test [3] was 2%-3%.

As for `CN(C)CC(=O)Nc1ccc2[nH]c(=O)c3ccccc3c2c1.Cl` [PJ-34], in the test on pkd1-null (WT9-12) cells, the mitotic progression result is “delay in mitotic progression”; the “spindle assembly checkpoint (SAC) and cell death of cells with CA” value was “activation of the spindle assembly checkpoint (SAC), leading to cell death”; the “centrosome clustering in cells with CA” value is “inhibited centrosome clustering”. Besides, the “normal mitotic spindle formation in cells with normal centrosome number” value in the test with wild-type (HK2) cells was “not impacting normal mitotic spindle formation”.
